Results from article PMC5599990, “Matriptase Induction of Metalloproteinase‐Dependent Aggrecanolysis In Vitro and In Vivo: Promotion of Osteoarthritic Cartilage Damage by Multiple Mechanisms” (Arthritis & Rheumatology (Hoboken, N.j.), 2017).

Target: T1, matriptase (Homo sapiens, UniProt Q9Y5Y6)
T1 construct: gene ST14; catalytic domain; amino acids 596–855
T1 sequence (Q9Y5Y6 596-855): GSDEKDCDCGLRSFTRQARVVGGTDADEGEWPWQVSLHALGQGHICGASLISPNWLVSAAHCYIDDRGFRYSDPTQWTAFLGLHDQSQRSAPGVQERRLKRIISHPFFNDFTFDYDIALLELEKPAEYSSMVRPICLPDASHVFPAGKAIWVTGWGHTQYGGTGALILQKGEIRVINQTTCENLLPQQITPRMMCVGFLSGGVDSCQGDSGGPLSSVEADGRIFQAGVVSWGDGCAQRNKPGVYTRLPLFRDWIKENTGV
Assay: isothermal titration calorimetry at […] °C ([…] stoichiometry); also enzyme inhibition, Ki =[…]
Assay type: binding

`N=C(N)c1cccc(C[C@H](NS(=O)(=O)c2cccc(NC(=O)CCN)c2)C(=O)N2CCC(CCN)CC2)c1` [compound 59, (S)‐3‐amino‐N‐(3‐(N‐(1‐(4‐(2‐aminoethyl)piperidin‐1‐yl)‐3‐(3‐carbamimidoylphenyl)‐1‐oxopropan‐2‐yl)sulfamoyl)phenyl)propanamide × 3HCl] showed a Kd of 20 nM.
